# Where a name gives a salt, the structure may show the parent alone.
# Biological target: T1, MPO (purified from human polynuclear leukocytes) (Homo sapiens, UniProt P05164)
# T1 construct: purified from human polynuclear leukocytes; purchased Calbiochem/EMD Biosciences; host or cells: human polynuclear leukocytes (natural source)
# Assay: MPO Amplex Red Activity Assay
# Assay type: biochemical
# Details: Table 1, 2 μM H2O2, pH 7.4
# Procedure, shortened: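 Potency is given as kinact/KI: kobs values from 600 s progress curves, minus the uninhibited rate, are fit against inhibitor concentration. Reactions use 2 μM H2O2, 30 μM Amplex Red, pH 7.4 phosphate buffer with NaCl, DTPA and 2% DMSO, started with […] human MPO. Readout is resorufin fluorescence, catalase background subtracted.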
# T1 sequence (P05164 279-745 limits assumed): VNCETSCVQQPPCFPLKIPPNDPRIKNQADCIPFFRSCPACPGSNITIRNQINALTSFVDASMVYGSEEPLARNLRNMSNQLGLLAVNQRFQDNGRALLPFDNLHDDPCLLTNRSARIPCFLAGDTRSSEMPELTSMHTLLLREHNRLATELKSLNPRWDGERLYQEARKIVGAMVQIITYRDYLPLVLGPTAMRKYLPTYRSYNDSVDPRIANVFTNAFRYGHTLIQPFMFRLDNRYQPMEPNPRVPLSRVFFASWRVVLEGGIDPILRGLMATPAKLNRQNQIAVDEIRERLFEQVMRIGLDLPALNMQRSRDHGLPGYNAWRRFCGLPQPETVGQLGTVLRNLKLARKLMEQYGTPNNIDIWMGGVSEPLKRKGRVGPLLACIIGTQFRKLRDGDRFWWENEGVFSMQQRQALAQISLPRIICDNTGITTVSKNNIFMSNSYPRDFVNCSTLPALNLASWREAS
# T1 sequence (P05164 165-273 limits assumed): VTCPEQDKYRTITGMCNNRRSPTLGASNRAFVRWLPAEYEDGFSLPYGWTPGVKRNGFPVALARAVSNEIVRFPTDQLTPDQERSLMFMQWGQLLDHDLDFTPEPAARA
row,MPO kinact/Ki,Structure (SMILES)
1,142 1/s per M,"COc1ccc(-c2cc(=O)[nH]c(=S)n2CCNCC(N)=O)c(OC)c1 [Example 242, N~2~-{2-[6-(2,4-dimethoxyphenyl)-4-oxo-2-thioxo-3,4-dihydropyrimidin-1(2H)-yl]ethyl}glycinamide]"
2,952 1/s per M,"COc1ccc(-c2cc(=O)[nH]c(=S)n2CCNCC(=O)O)c(OC)c1 [Example 243, N-{2-[6-(2,4-dimethoxyphenyl)-4-oxo-2-thioxo-3,4-dihydropyrimidin-1(2H)-yl]ethyl}glycine hydrochloride]"
3,8970 1/s per M,"COc1ccc(-c2cc(=O)[nH]c(=S)n2CCOC(=O)CN)c(OC)c1 [Example 244, 2-[6-(2,4-dimethoxyphenyl)-4-oxo-2-thioxo-3,4-dihydropyrimidin-1(2H)-yl]ethyl glycinate tosylate]"
4,1520 1/s per M,"COc1ccc(-c2cc(=O)[nH]c(=S)n2CCCNCCO)c(OC)c1 [Example 245, 6-(2,4-dimethoxyphenyl)-1-{3-[(2-hydroxyethyl)amino]propyl}-2-thioxo-2,3-dihydropyrimidin-4(1H)-one]"
5,246 1/s per M,"COc1ccc(-c2cc(=O)[nH]c(=S)n2CCOCC(=O)O)c(OC)c1 [Example 246, {2-[6-(2,4-dimethoxyphenyl)-4-oxo-2-thioxo-3,4-dihydropyrimidin-1(2H)-yl]ethoxy}acetic acid]"
6,3590 1/s per M,"COc1ccc(-c2cc(=O)[nH]c(=S)n2CCS(N)(=O)=O)c(OC)c1 [Example 248, 2-[6-(2,4-dimethoxyphenyl)-4-oxo-2-thioxo-3,4-dihydropyrimidin-1(2H)-yl]ethanesulfonamide]"
7,1050 1/s per M,"COc1ccc(-c2cc(=O)[nH]c(=S)n2CCNc2ncc[nH]2)c(OC)c1 [Example 249, 6-(2,4-dimethoxyphenyl)-1-[2-(1H-imidazol-2-ylamino)ethyl]-2-thioxo-2,3-dihydropyrimidin-4(1H)-one]"
8,7510 1/s per M,"COc1ccc(-c2cc(=O)[nH]c(=S)n2CCNC2=NCCN2)c(OC)c1 [Example 250, 1-[2-(4,5-dihydro-1H-imidazol-2-ylamino)ethyl]-6-(2,4-dimethoxyphenyl)-2-thioxo-2,3-dihydropyrimidin-4(1H)-one]"
9,12700 1/s per M,"COc1ccc(-c2cc(=O)[nH]c(=S)n2CCCCNC(=N)N)c(OC)c1 [Example 253, 1-{4-[6-(2,4-dimethoxyphenyl)-4-oxo-2-thioxo-3,4-dihydropyrimidin-1(2H)-yl]butyl}guanidine]"
10,5630 1/s per M,"COc1ccc(-c2cc(=O)[nH]c(=S)n2CC(=O)NCC(N)=O)c(OC)c1 [Example 254, N~2~-{[6-(2,4-dimethoxyphenyl)-4-oxo-2-thioxo-3,4-dihydropyrimidin-1(2H)-yl]acetyl}glycinamide]"
11,3550 1/s per M,"COc1ccc(-c2cc(=O)[nH]c(=S)n2CCNC(=O)[C@@H](C)N)c(OC)c1 [Example 255, N-{2-[6-(2,4-dimethoxyphenyl)-4-oxo-2-thioxo-3,4-dihydropyrimidin-1(2H)-yl]ethyl}-D-alaninamide trifluoroacetate]"
12,6520 1/s per M,"COc1ccc(-c2cc(=O)[nH]c(=S)n2CCNC(=O)[C@H](C)N)c(OC)c1 [Example 256, N-{2-[6-(2,4-dimethoxyphenyl)-4-oxo-2-thioxo-3,4-dihydropyrimidin-1(2H)-yl]ethyl}-L-alaninamide trifluoroacetate]"
13,3700 1/s per M,"COc1ccc(-c2cc(=O)[nH]c(=S)n2CCNS(C)(=O)=O)c(OC)c1 [Example 257, N-{2-[6-(2,4-dimethoxyphenyl)-4-oxo-2-thioxo-3,4-dihydropyrimidin-1(2H)-yl]ethyl}methanesulfonamide]"
14,19700 1/s per M,"COc1ccc(-c2cc(=O)[nH]c(=S)n2CCCC[C@H](N)C(N)=O)c(OC)c1 [Example 260, 6-[6-(2,4-dimethoxyphenyl)-4-oxo-2-thioxo-3,4-dihydropyrimidin-1(2H)-yl]norleucinamide hydrochloride]"
15,4340 1/s per M,"COc1ccc(-c2cc(=O)[nH]c(=S)n2CCNC(=O)[C@@H](N)C(C)C)c(OC)c1 [Example 263, N-{2-[6-(2,4-dimethoxyphenyl)-4-oxo-2-thioxo-3,4-dihydropyrimidin-1(2H)-yl]ethyl}-L-valinamide trifluoroacetate]"
16,604 1/s per M,"C=CCn1c(-c2ccc(OC)cc2OC)cc(=O)[nH]c1=S [Example 266, 1-allyl-6-(2,4-dimethoxyphenyl)-2-thioxo-2,3-dihydropyrimidin-4(1H)-one]"
17,3840 1/s per M,"COc1ccc(-c2cc(=O)[nH]c(=S)n2C[C@H]2CCCN2)c(OC)c1 [Example 267, 6-(2,4-dimethoxyphenyl)-1-[(2R)-pyrrolidin-2-ylmethyl]-2-thioxo-2,3-dihydropyrimidin-4(1H)-one hydrochloride]"
18,6640 1/s per M,"COc1ccc(-c2cc(=O)[nH]c(=S)n2C[C@@H]2CCCN2)c(OC)c1 [Example 268, 6-(2,4-dimethoxyphenyl)-1-[(2S)-pyrrolidin-2-ylmethyl]-2-thioxo-2,3-dihydropyrimidin-4(1H)-one hydrochloride hydrochloride hydrochloride, hydrochloride hydrochloride …]"
19,9510 1/s per M,"COc1ccc(-c2cc(=O)[nH]c(=S)n2CCOCCN)c(OC)c1 [Example 269, 1-[2-(2-aminoethoxy)ethyl]-6-(2,4-dimethoxyphenyl)-2-thioxo-2,3-dihydropyrimidin-4(1H)-one hydrochloride]"
20,20500 1/s per M,"COc1ccc(-c2cc(=O)[nH]c(=S)n2CCCN=C(N)N)c(OC)c1 [Example 270, 2-{3-[6-(2,4-dimethoxyphenyl)-4-oxo-2-thioxo-3,4-dihydropyrimidin-1(2H)-yl]propyl}guanidine trifluoroacetate]"

# The remaining lines, values behind:
row,Structure (SMILES),MPO kinact/Ki
1,"COc1ccc(-c2cc(=O)[nH]c(=S)n2Cc2cnc(C)cn2)c(OC)c1 [Example 247, 6-(2,4-dimethoxyphenyl)-1-[(5-methylpyrazin-2-yl)methyl]-2-thioxo-2,3-dihydropyrimidin-4(1H)-one]",3060 1/s per M
2,"COc1ccc(-c2cc(=O)[nH]c(=S)n2CCN2CCOCC2)c(OC)c1 [Example 251, 6-(2,4-dimethoxyphenyl)-1-(2-morpholin-4-ylethyl)-2-thioxo-2,3-dihydropyrimidin-4(1H)-one]",68 1/s per M
3,"COc1ccc(-c2cc(=O)[nH]c(=S)n2CC2(O)CCNCC2)c(OC)c1 [Example 252, 6-(2,4-dimethoxyphenyl)-1-[(4-hydroxypiperidin-4-yl)methyl]-2-thioxo-2,3-dihydropyrimidin-4(1H)-one hydrochloride]",2480 1/s per M
4,"COc1ccc(-c2cc(=O)[nH]c(=S)n2CC2CCCN2C(=N)N)c(OC)c1 (stereo not shown) [Example 258, 2-{[6-(2,4-dimethoxyphenyl)-4-oxo-2-thioxo-3,4-dihydropyrimidin-1(2H)-yl]methyl}pyrrolidine-1-carboximidamide trifluoroacetate]",1460 1/s per M
5,"COc1ccc(-c2cc(=O)[nH]c(=S)n2CC2CCN(C(=N)N)C2)c(OC)c1 (stereo not shown) [Example 259, 3-{[6-(2,4-dimethoxyphenyl)-4-oxo-2-thioxo-3,4-dihydropyrimidin-1(2H)-yl]methyl}pyrrolidine-1-carboximidamide trifluoroacetate]",4000 1/s per M
6,"COc1ccc(-c2cc(=O)[nH]c(=S)n2Cc2ccn(C(N)=S)n2)c(OC)c1 [Example 261, 3-{[6-(2,4-dimethoxyphenyl)-4-oxo-2-thioxo-3,4-dihydropyrimidin-1(2H)-yl]methyl}-1H-pyrazole-1-carbothioamide]",2280 1/s per M
7,"COc1ccc(-c2cc(=O)[nH]c(=S)n2CC2CCCN2C(=O)CN)c(OC)c1 (stereo not shown) [Example 262, 6-(2,4-dimethoxyphenyl)-1-[(1-glycylpyrrolidin-2-yl)methyl]-2-thioxo-2,3-dihydropyrimidin-4(1H)-one hydrochloride]",1730 1/s per M
8,"COc1cccc(-c2cc(=O)[nH]c(=S)n2CCN)c1 [Example 264, 1-(2-aminoethyl)-6-(3-methoxyphenyl)-2-thioxo-2,3-dihydropyrimidin-4(1H)-one hydrochloride]",3620 1/s per M
9,"COc1cccc(-c2cc(=O)[nH]c(=S)n2CCCN)c1 [Example 265, 1-(3-aminopropyl)-6-(3-methoxyphenyl)-2-thioxo-2,3-dihydropyrimidin-4(1H)-one hydrochloride]",3730 1/s per M
10,"COCCc1ccccc1-c1cc(=O)[nH]c(=S)n1CCO [Example 271, 1-(2-hydroxyethyl)-6-[2-(2-methoxyethyl)phenyl]-2-thioxo-2,3-dihydropyrimidin-4(1H)-one]",2010 1/s per M
11,"NCCn1c(-c2ccccc2OCC(N)=O)cc(=O)[nH]c1=S [Example 272, 2-{2-[3-(2-aminoethyl)-6-oxo-2-thioxo-1,2,3,6-tetrahydropyrimidin-4-yl]phenoxy}acetamide trifluoroacetate]",3160 1/s per M
12,"COc1cc(-c2cc(=O)[nH]c(=S)n2CCO)c(OC)cc1C [Example 273, 6-(2,5-dimethoxy-4-methylphenyl)-1-(2-hydroxyethyl)-2-thioxo-2,3-dihydropyrimidin-4(1H)-one]",8180 1/s per M
13,"COc1ccc(-c2cc(=O)[nH]c(=S)n2CCO)c2ccccc12 [Example 274, 1-(2-hydroxyethyl)-6-(4-methoxy-1-naphthyl)-2-thioxo-2,3-dihydropyrimidin-4(1H)-one]",22800 1/s per M
14,"COCCn1c(-c2cc(OC)c(C)cc2OC)cc(=O)[nH]c1=S [Example 275, 6-(2,5-dimethoxy-4-methylphenyl)-1-(2-methoxyethyl)-2-thioxo-2,3-dihydropyrimidin-4(1H)-one]",4730 1/s per M

# — patent US9399626B2, “2-thiopyrimidinones” (Pfizer Inc., priority 2011, dated 2016)
